Where two headings read alike, the source gives them in different places.
Tests used:
Format in all cases: in vivo
Lolium rigidum (LOLRI) [1] = assay: Post-emergence herbicidal action against LOLRI
Outline: (§1)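 Values are percent visual activity (0% like control, 100% plants dead) after about 3 weeks in the greenhouse. Treatment: post-emergence spray at one-leaf stage, 600 l/ha spray volume, 0.5% additive, doses 320 g/ha or lower.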

[2] = test system: Polygonum convolvulus (POLCO); assay: Pre-emergence herbicidal action against POLCO; details: dosage 320 g/ha
Outline: (§2)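 Pre-emergence soil-surface spray of compound, formulated as wettable powder or emulsion concentrate, in aqueous suspension or emulsion with 0.5% additive (600 l/ha; rate 320 g/ha or less). Activity rated visually after roughly 3 weeks in the greenhouse as a percentage of untreated controls, 0% meaning no difference.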

Viola tricolor (VIOTR) [3] = assay: Post-emergence herbicidal action against VIOTR
Outline: as §1

Avena fatua (AVEFA) [4] = assay: Pre-emergence herbicidal action against AVEFA; details: 320 g/ha, visual scoring after about 3 weeks vs untreated controls
Outline: as §2

Zea mays (ZEAMX) [5] = details: crop plant compatibility, effect vs untreated controls
Outline: (§3)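 Foliar application at the one-leaf stage: WP/EC formulation, 0.5% additive, 600 l/ha water. Greenhouse-grown in sandy loam. Endpoint is visual % injury relative to untreated controls at about 3 weeks.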

Setaria viridis (SETVI) [6] = assay: Post-emergence herbicidal action against SETVI; details: dosage 320 g/ha
Outline: as §1

[7] = test system: Amaranthus retroflexus (AMARE); assay: Pre-emergence herbicidal action against AMARE; details: visual scoring after about 3 weeks vs untreated controls
Outline: as §2

[8] = test system: Alopecurus myosuroides (ALOMY); assay: Post-emergence herbicidal action against ALOMY; details: visual rating about 3 weeks after treatment vs untreated controls (100% = plants have died, 0% = like control plants)
Outline: as §1

[9] = test system: Polygonum convolvulus (POLCO); assay: Post-emergence herbicidal action against POLCO
Outline: as §1

[10] = test system: Echinochloa crus-galli (ECHCG); assay: Post-emergence herbicidal action against ECHCG
Outline: as §1

Setaria viridis (SETVI) [11] = assay: Pre-emergence herbicidal action against SETVI; details: dosage 320 g/ha
Outline: as §2

Viola tricolor (VIOTR) [12] = assay: Pre-emergence herbicidal action against VIOTR
Outline: as §2

[13] = test system: Alopecurus myosuroides (ALOMY); assay: Pre-emergence herbicidal action against ALOMY; details: 320 g/ha; scored visually after about 3 weeks; 100% = plants have died
Outline: as §2

[14] = test system: Triticum aestivum (TRZAS); details: pre-emergence, crop plant compatibility, in comparison to untreated controls
Outline: (§4)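 Scoring: visual, % of untreated control, about 3 weeks after a pre-emergence application to the soil surface. Application used WP or EC formulations diluted in water with 0.5% additive at 600 l/ha; dosage levels are marked by suffixes a, b and c.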

Zea mays (ZEAMX) [15] = details: pre-emergence, crop plant compatibility, in comparison to untreated controls
Outline: as §4

Oryza sativa (ORYSA) [16] = details: pre-emergence, crop plant compatibility, in comparison to untreated controls
Outline: as §4

Brassica napus (BRSNW) = details: crop plant compatibility, in comparison to untreated controls
Outline: as §4

[17] = test system: Abutilon theophrasti (ABUTH); assay: Post-emergence herbicidal action against ABUTH; details: visual rating about 3 weeks after treatment vs untreated controls (100% = plants have died, 0% = like control plants)
Outline: as §1

[18] = test system: Amaranthus retroflexus (AMARE); assay: Post-emergence herbicidal action against AMARE
Outline: as §1

Avena fatua (AVEFA) [19] = assay: Post-emergence herbicidal action against AVEFA; details: visual rating about 3 weeks after treatment
Outline: as §1

[20] = test system: Verconica persica (VERPE); assay: Post-emergence herbicidal action against VERPE
Outline: as §1

[21] = test system: Verconica persica (VERPE); assay: Pre-emergence herbicidal action against VERPE
Outline: as §2

[22] = test system: Abutilon theophrasti (ABUTH); assay: Pre-emergence herbicidal action against ABUTH; details: 100% = plants have died
Outline: as §2

Oryza sativa (ORYSA) [23] = details: crop plant compatibility, effect in comparison to untreated controls
Outline: as §3

[24] = test system: Pharbitis purpurea (PHBPU); assay: Pre-emergence herbicidal action against PHBPU; details: dosage 320 g/ha
Outline: as §2

[25] = test system: Matricaria inodora (MATIN); assay: Pre-emergence herbicidal action against MATIN
Outline: as §2

Lolium rigidum (LOLRI) [26] = assay: Pre-emergence herbicidal action against LOLRI
Outline: as §2

[27] = test system: Pharbitis purpurea (PHBPU); assay: Post-emergence herbicidal action against PHBPU
Outline: as §1

[28] = test system: Echinochloa crus-galli (ECHCG); assay: Pre-emergence herbicidal action against ECHCG; details: dosage 320 g/ha
Outline: as §2

[29] = test system: Triticum aestivum (TRZAS); details: crop plant compatibility, effect vs untreated controls
Outline: as §3

[30] = 320 g/ha, visual rating about 3 weeks after treatment
[31] = Dosage column 320 g/ha (title prints 3200 g/ha), scored visually after about 3 weeks

Post-emergence action against ZEAMX in % (Zea mays (ZEAMX) [5]; 80 g/ha)	Pre-emergence action against ZEAMX in % (Zea mays (ZEAMX) [15]; 80 g/ha)	Pre-emergence action against BRSNW in % (Brassica napus (BRSNW); 80 g/ha)	Post-emergence action against ORYSA in % (Oryza sativa (ORYSA) [23]; 80 g/ha)	SMILES	Post-emergence action against LOLRI in % (Lolium rigidum (LOLRI) [1]; dosage 320 g/ha)	Pre-emergence action against POLCO in % [2]	Post-emergence action against VIOTR in % (Viola tricolor (VIOTR) [3]; 320 g/ha)	Pre-emergence action against AVEFA in % (Avena fatua (AVEFA) [4])	Post-emergence action against SETVI in % (Setaria viridis (SETVI) [6])	Pre-emergence action against AMARE in % ([7]; 320 g/ha)	Post-emergence action against ALOMY in % ([8]; 320 g/ha)	Post-emergence action against POLCO in % ([9]; dosage 320 g/ha)	Post-emergence action against ECHCG in % ([10]; dosage 80 g/ha)	Post-emergence action against ECHCG in % ([10]; dosage 320 g/ha)	Pre-emergence action against VIOTR in % (Viola tricolor (VIOTR) [12]; 320 g/ha, Viola tricolor)	Pre-emergence action against VIOTR in % (Viola tricolor (VIOTR) [12]; dosage 80 g/ha)	Pre-emergence action against ALOMY [13]	Post-emergence action against ABUTH in % ([17]; 320 g/ha)	Post-emergence action against AMARE in % [18, 30]	Post-emergence action against VERPE in % ([20]; 320 g/ha, VERPE)	further results
0%	0%	20%		O=C(O)COc1nn(-c2ncccc2Cl)c(-c2ccc(F)nc2)c1Br [Example I-26]	80%	90%	80%	90%	90%	100%	90%	80%	80%	80%	100%	100%	100%	90%	80%	80%	Post-emergence action against POLCO in % ([9]; dosage 80 g/ha): 80%; Pre-emergence action against SETVI in % (Setaria viridis (SETVI) [11]): 100%; Pre-emergence action against TRZAS in % ([14]; 80 g/ha): 0%; Pre-emergence action against ORYSA in % (Oryza sativa (ORYSA) [16]; 80 g/ha): 0%; Post-emergence action against AMARE in % ([18]; 80 g/ha, visual rating about 3 weeks after treatment vs untreated controls (100% = plants have died, 0% = like control plants)): 80%; Post-emergence action against AVEFA in % (Avena fatua (AVEFA) [19]; 80 g/ha): 100%; Post-emergence action against AVEFA in % (Avena fatua (AVEFA) [19]; 320 g/ha): 100%
10%		20%	0%	COC(=O)[C@@H](C)Oc1nn(-c2nc(F)ccc2F)c(-c2ccc(F)nc2)c1Br [Example I-319]	80%	90%	90%	100%	80%	100%	90%	80%	80%	90%	100%	100%	100%	80%	80%	80%	Pre-emergence action against VERPE in % ([21]; dosage 80 g/ha): 80%; Pre-emergence action against VERPE in % ([21]; dosage 320 g/ha): 90%; Post-emergence action against LOLRI in % (Lolium rigidum (LOLRI) [1]; dosage 80 g/ha): 80%; Post-emergence action against VIOTR in % (Viola tricolor (VIOTR) [3]; 80 g/ha): 80%; Pre-emergence action against ABUTH [22, 31]: 80%; Pre-emergence action against PHBPU in % [24]: 90%; Post-emergence action against ALOMY in % ([8]; 80 g/ha): 90%; Pre-emergence action against MATIN in % ([25]; dosage 320 g/ha): 90%; Pre-emergence action against SETVI in % (Setaria viridis (SETVI) [11]): 100%; Pre-emergence action against LOLRI in % (Lolium rigidum (LOLRI) [26]; dosage 80 g/ha): 90%; Pre-emergence action against LOLRI in % (Lolium rigidum (LOLRI) [26]; dosage 320 g/ha): 100%; Post-emergence action against PHBPU in % ([27]; dosage 80 g/ha): 80%; Post-emergence action against PHBPU in % ([27]; dosage 320 g/ha): 90%; Post-emergence action against AVEFA in % (Avena fatua (AVEFA) [19]; 80 g/ha): 80%; Post-emergence action against AVEFA in % (Avena fatua (AVEFA) [19]; 320 g/ha): 80%; Pre-emergence action against ECHCG in % [28]: 100%
0%	0%	20%	20%	CCOC(=O)COc1nn(-c2ncccc2C(F)(F)F)c(-c2ccc(F)nc2)c1Cl [Example I-325]	90%	90%	90%	100%		100%	100%	80%	90%	90%	100%	90%	100%	90%	80%	90%	Post-emergence action against VIOTR in % (Viola tricolor (VIOTR) [3]; 80 g/ha): 90%; Pre-emergence action against ABUTH ([22]; 80 g/ha, scored visually after about 3 weeks vs untreated controls, 0% = like control plants): 90%; Pre-emergence action against ABUTH [22, 31]: 90%; Pre-emergence action against PHBPU in % [24]: 80%; Pre-emergence action against AMARE in % ([7]; 80 g/ha): 100%; Post-emergence action against ALOMY in % ([8]; 80 g/ha): 80%; Pre-emergence action against MATIN in % ([25]; dosage 80 g/ha): 100%; Pre-emergence action against MATIN in % ([25]; dosage 320 g/ha): 100%; Pre-emergence action against LOLRI in % (Lolium rigidum (LOLRI) [26]; dosage 320 g/ha): 100%; Post-emergence action against PHBPU in % ([27]; dosage 320 g/ha): 80%; Pre-emergence action against ZEAMX in % (Zea mays (ZEAMX) [15]; 320 g/ha): 0%; Post-emergence action against ABUTH in % ([17]; 80 g/ha): 80%; Post-emergence action against VERPE in % ([20]; dosage 80 g/ha): 80%
0%	10%	0%	0%	O=C(O)C1CCN(C(=O)COc2nn(-c3ccccn3)c(-c3cncc(F)c3)c2Br)C1 (racemic) [Example I-63]																	Post-emergence action against TRZAS in % ([29]; 80 g/ha): 0%; Post-emergence action against TRZAS in % ([29]; 320 g/ha): 0%; Post-emergence action against ZEAMX in % (Zea mays (ZEAMX) [5]; 320 g/ha): 10%; Post-emergence action against ORYSA in % (Oryza sativa (ORYSA) [23]; 320 g/ha): 10%; Pre-emergence action against TRZAS in % ([14]; 80 g/ha): 0%; Pre-emergence action against TRZAS in % ([14]; 320 g/ha): 0%; Pre-emergence action against ZEAMX in % (Zea mays (ZEAMX) [15]; 320 g/ha): 10%; Pre-emergence action against ORYSA in % (Oryza sativa (ORYSA) [16]; 80 g/ha): 0%; Pre-emergence action against ORYSA in % (Oryza sativa (ORYSA) [16]; 320 g/ha): 0%; Pre-emergence action against BRSNW in % (Brassica napus (BRSNW); 320 g/ha): 20%

— patent US20240041042A1, “1-(PYRIDYL)-5-AZINYLPYRAZOLE DERIVATIVES, AND THEIR USE FOR CONTROL OF UNDESIRED PLANT GROWTH” (Bayer Aktiengesellschaft, priority 2020, published 2024)
